According to patent US5382586A, “Aryl (or heteroaryl)piperazinylalkylazole derivatives, their preparation and their application as medicaments” (priority 1991, dated 1995):

How the values were obtained:
[1] = system: immobility of mice; assay: desperate behaviour test (antidepressant activity); type: in vivo, mouse; settings: 30 mg/kg, i.p.; p < 0.05; control 118 s
Description: The desperate behaviour test in mice, described by R. D. Porsolt et al. (Arch. Int. Pharmacodyn. 1977, 229, 327-336), is used.
The animals are placed for 6 minutes in a cylinder containing water, from which they are not able to escape. The period of immobility between minutes 2 and 5 is determined for groups of 10 mice per dosage tested.
The product studied is administered i.p. 1 hour before the test. In this test the immobility of the animals is explained as being produced by their depressed state resulting from being faced with an adverse and insoluble situation in a hostile environment such as water.
In our test imipramine (30 mg/kg; i.p.) was used as reference product.

[2] = system: familiarisation process in mice; assay: light box/dark box test: familiarisation process (improvement of cognition); type: in vivo, mouse
Description: The influence of this product on the familiarisation process of mice in the light box/dark box test described by J. M. Barnes et al., (Pharmacol. Biochem. Behav., 1990, 35, 955-962) is studied. On the one hand, the effect on learning (the speed of familiarisation) and on the other hand the capacity for blocking contrary effects produced by escopolamine are studied.
The mouse is placed in the light zone of a box divided into two compartments, one brightly illuminated, the light box, and the other with little illumination, the dark box.
1) The number of times the mouse stands up on the hind paws in each compartment during a 5 minute period is counted (see Column 1 of the table below).
2) The activity in each compartment is given by counting the number of crossings through the squares which form the divisions of each compartment (see Column 2 of the table below).
3) The time passed in the dark box during the 5 minute counting period is determined (see Column 3 of the table below).
4) The initial latent period is determined, that is to say the time which elapses after the animal is placed in the light box, at the start of the test, before it enters the dark box (see Column 4 of the table below).
Two treatments with the vehicle are administered to the control animals per day. Two doses of 0.00001 ng/kg p.o. of compound 42 are administered per day to the animals treated with this product. The same operation is repeated daily for 5 days.
The animals learn to remain in the dark box for a longer period and to go into the box more rapidly.
On day six escopolamine (2×0.25 mg/kg, i.p.) is administered.
They recover the learned habit on day seven.

[3] = day 6, after 2 treatments with escopolamine (0.25 mg/kg, i.p.), Example 42 at 0.00001 ng/kg p.o. twice per day

Row | SMILES | Period of immobility [1] [s] | effect on the learned behaviour (control group) ([2]; 2×0.25 mg/kg, i.p., day six) | Activity within 5 min. period, dark (D) [2, 3] | Activity within 5 min. period, light (L) [2, 3] | Latent period L-D [2, 3] | No. of times standing erect within 5 min period, dark (D) [2, 3] | No. of times standing erect within 5 min period, light (L) [2, 3] | Time in the box, dark (D) [2, 3]
1 | CN(C)CCCN1c2ccccc2CCc2ccccc21 [Imipramine, reference compound] | 71 | – | – | – | – | – | – | –
2 | CN1C2CC(OC(=O)C(CO)c3ccccc3)CC1C1OC12 (centres unmarked) [escopolamine, reference compound] | – | the animals of the control group "forget" the learned behaviour | 30 | 67 | 21 | 38 | 59 | 27
